From patent US11485744B2, “High penetration prodrug compositions of antimicrobials and antimicrobial-related compounds” (priority 2009, dated 2022)
Blank lines part the entries; values can stand above or below the compound they belong to.

Assay: In vitro penetration across isolated human skin in modified Franz cells
Method: Penetration rates of HPPs and their parent drugs through human skin were measured in vitro by modified Franz cells. A Franz cell had two chambers, the top sample chamber and the bottom receiving chamber. The human skin tissue (360-400 μm thick) that separated the top and the receiving chambers was isolated from the anterior or posterior thigh areas.
A test compound (2 mL, 10% in 0.2 M phosphate buffer, pH 7.4) was added to the sample chamber of a Franz cell. The receiving chamber contained 10 ml of 0.2 M phosphate buffer which was stirred at 600 rpm. The amount of the tested compound penetrating the skin was determined by high-performance liquid chromatography (HPLC) method.

[1] = Table 1b, isolated human skin, Franz cells, 10% in 0.2 M phosphate buffer pH 7.4, n=5

Compound: CCCN(CCC)CCOC(=O)C1N2C(=O)C(NC(=O)c3c(OC)cccc3OC)C2SC1(C)C.Cl (stereo not drawn) [6-(2,6-dimethoxybenzamido)penicillinic acid 2-dipropylaminoethyl ester hydrochloride]
- In vitro Penetration Rate (apparent flux), HPPs (pH 7.4): 0.52 ± 0.07 mg/cm^2/h

Compound: Cc1onc(-c2c(Cl)cccc2Cl)c1C(=O)NC1C(=O)N2C1SC(C)(C)C2C(=O)OCCN1CCCCC1.Cl (stereo not drawn) [6-[3-(2,6-dichlorophenyl)-5-methyl-4-isoxazolecarboxamido]penicillinic acid 1-piperidineethyl ester hydrochloride]
- In vitro Penetration Rate (apparent flux), HPPs (pH 7.4): 0.58 ± 0.05 mg/cm^2/h

Compound: Cc1onc(-c2ccccc2Cl)c1C(=O)NC1C(=O)N2C1SC(C)(C)C2C(=O)OCCC1CCCNC1.Cl (stereo not drawn) [6-[3-(o-chlorophenyl)-5-methyl-4-isoxazolecarboxamido]penicillinic acid 3-piperidineethyl ester hydrochloride]
- In vitro Penetration Rate (apparent flux), HPPs (pH 7.4): 0.85 ± 0.05 mg/cm^2/h

Compound: CCOC(=O)C1N2C(=O)C(NC(=O)[C@H](N)c3ccccc3)C2SC1(C)C.Cl (stereo partly drawn) [6-[D(−)-α-aminophenylacetamidopenicillinic acid ethyl ester hydrochloride]
- In vitro Penetration Rate (apparent flux), HPPs (pH 7.4): 0.82 ± 0.06 mg/cm^2/h

Compound: CC1(C)SC2C(NC(=O)C(NC(=O)N3CCN(S(C)(=O)=O)C3=O)c3ccccc3)C(=O)N2C1C(=O)OCCN1CCCC1.Cl (stereo not drawn) [6R-[2-[3-(methylsulfonyl)-2-oxo-1-imidazolidinecarboxamido]-2-phenylacetamido]penicillinic acid 1-pyrrolidineethyl ester hydrochloride]
- In vitro Penetration Rate (apparent flux), HPPs (pH 7.4): 0.79 ± 0.07 mg/cm^2/h

Compound: C=CCSCC(=O)NC1C(=O)N2C1SC(C)(C)C2C(=O)OCCN(C)C.Cl (stereo not drawn) [Allylmercaptomethylpenicillinic acid 2-dimethylaminoethyl ester hydrochloride]
- In vitro Penetration Rate (apparent flux), HPPs (pH 7.4): 0.65 ± 0.05 mg/cm^2/h

- In vitro Penetration Rate (apparent flux), Parent compounds (human, 10 %, pH 7.4): <0.001 mg/cm^2/h
Compound: CC1(C)S[C@@H]2[C@H](NC(=O)[C@H](NC(=O)N3CCNC3=O)c3ccccc3)C(=O)N2[C@H]1C(=O)O [Azlocillin, reference compound]

- In vitro Penetration Rate (apparent flux), Parent compounds (human, 10 %, pH 7.4): <0.016 mg/cm^2/h
Compound: N[C@@H](C(=O)N[C@@H]1C(=O)N2C(C(=O)O)=C(Cl)CS[C@H]12)c1ccccc1 [Cefaclor, reference compound]

- In vitro Penetration Rate (apparent flux), Parent compounds (human, 10 %, pH 7.4): <0.010 mg/cm^2/h
Compound: C=CC1=C(C(=O)O)N2C(=O)[C@@H](NC(=O)/C(=N\OCC(=O)O)c3csc(N)n3)[C@H]2SC1 [Cefixime, reference compound]

- In vitro Penetration Rate (apparent flux), Parent compounds (human, 10 %, pH 7.4): <0.015 mg/cm^2/h
Compound: CCN1CCN(C(=O)N[C@@H](C(=O)N[C@@H]2C(=O)N3C(C(=O)O)=C(CSc4nnnn4C)CS[C@H]23)c2ccc(O)cc2)C(=O)C1=O [Cefoperazone, reference compound]

- In vitro Penetration Rate (apparent flux), Parent compounds (human, 10 %, pH 7.4): <0.001 mg/cm^2/h
Compound: NCc1ccccc1CC(=O)N[C@@H]1C(=O)N2C(C(=O)O)=C(CSc3nnnn3CC(=O)O)CS[C@H]12 [Ceforanide, reference compound]

- In vitro Penetration Rate (apparent flux), Parent compounds (human, 10 %, pH 7.4): <0.001 mg/cm^2/h
Compound: COCC1=C(C(=O)OC(C)OC(=O)OC(C)C)N2C(=O)[C@@H](NC(=O)/C(=N\OC)c3csc(N)n3)[C@H]2SC1 (stereo partly drawn) [Cefpodoxime proxetil, reference compound]

- In vitro Penetration Rate (apparent flux), Parent compounds (human, 10 %, pH 7.4): <0.001 mg/cm^2/h
Compound: CO/N=C(\C(=O)N[C@@H]1C(=O)N2C(C(=O)O)=C(COC(N)=O)CS[C@H]12)c1ccco1 [Cefuroxime, reference compound]

- In vitro Penetration Rate (apparent flux), Parent compounds (human, 10 %, pH 7.4): <0.001 mg/cm^2/h
Compound: CC(=O)OCC1=C(C(=O)O)N2C(=O)[C@@H](NC(=O)Cc3cccs3)[C@H]2SC1 [Cephalothin, reference compound]

- In vitro Penetration Rate (apparent flux), HPPs (pH 7.4): 0.72 ± 0.05 mg/cm^2/h
Compound: CC1(C)SC2C(NC(=O)[C@H](NC(=O)N3CCNC3=O)c3ccccc3)C(=O)N2C1C(=O)OCC1CCCN1.Cl (stereo partly drawn) [D-α-[(imidazolidin-2-on-1-yl)carbonylamino]benzylpenicillin 2-pyrrolidinemethyl ester hydrochloride]

Compound: CN(C)CCCC(=O)Nc1ccc(S(N)(=O)=O)cc1.Cl [DMAB-sulfanilamide, 4-(4-dimethylaminobutyryl)amidobenzenesulfonamide•HCl salt]
- In vitro Penetration Rate (apparent flux), HPPs of sulfonamides, sulfones, quinolones (pH 7.4): 0.18 ± 0.03 mg/cm^2/h

- In vitro Penetration Rate (apparent flux), Parent compounds (human, 10 %, pH 7.4): <0.001 mg/cm^2/h
Compound: Cc1onc(-c2c(Cl)cccc2Cl)c1C(=O)N[C@@H]1C(=O)N2[C@@H]1SC(C)(C)[C@@H]2C(=O)O [Dicloxacillin, reference compound]

- In vitro Penetration Rate (apparent flux), Parent compounds (human, 10 %, pH 7.4): <0.001 mg/cm^2/h
Compound: CC1(C)S[C@@H]2[C@H](NC(=O)[C@H](NC(=O)N3CCN(S(C)(=O)=O)C3=O)c3ccccc3)C(=O)N2[C@H]1C(=O)O [Mezlocillin, reference compound]

Compound: Cl.O=C(NCP(=O)(OCCN1CCCCC1)Oc1cccnc1)OCc1ccccc1 (stereo not drawn) [[(N-benzyloxycarbonylamino)methyl]-phosphonic acid (3-pyridinyl)(1-piperidineethyl) ester•HCl salt]
- In vitro Penetration Rate (apparent flux), HPPs of beta-lactamases inhibitors [1]: 0.25 ± 0.04 mg/cm^2/h

Compound: CCN(CC)COP(=O)(CNC(=O)OCc1ccccc1)Oc1ccc([N+](=O)[O-])cc1.Cl (stereo not drawn) [[(N-benzyloxycarbonylamino)methyl]-phosphonic acid (4-nitrophenyl)(N,N-diethylaminomethyl) ester•HCl salt]
- In vitro Penetration Rate (apparent flux), HPPs of beta-lactamases inhibitors [1]: 0.37 ± 0.03 mg/cm^2/h

Compound: O=C(NCP(=O)([O-])Oc1cccnc1)OCc1ccccc1.[Na+] [[(N-benzyloxycarbonylamino)methyl]-phosphonic acid mono-(3-pyridinyl) ester sodium salt, reference compound]
- In vitro Penetration Rate (apparent flux), Parent compounds (beta-lactamases inhibitors) [1]: <0.001 mg/cm^2/h

Compound: O=C(NCP(=O)([O-])Oc1ccc([N+](=O)[O-])cc1)OCc1ccccc1.[Na+] [[(N-benzyloxycarbonylamino)methyl]-phosphonic acid mono-(4-nitrophenyl) ester sodium salt, reference compound]
- In vitro Penetration Rate (apparent flux), Parent compounds (beta-lactamases inhibitors) [1]: <0.001 mg/cm^2/h

- In vitro Penetration Rate (apparent flux), Parent compounds (human, 10 %, pH 7.4): <0.001 mg/cm^2/h
Compound: CO[C@@]1(NC(=O)Cc2cccs2)C(=O)N2C(C(=O)O)=C(COC(N)=O)CS[C@@H]21 [cefoxitin, reference compound]

Compound: O=C(O)[C@H]1/C(=C/CO)O[C@@H]2CC(=O)N21 [clavulanic acid, (2R,5R,Z)-3-(2-hydroxyethylidene)-7-oxo-4-oxa-1-aza-bicyclo[3.2.0]heptane-2-carboxylic acid, reference compound]
- In vitro Penetration Rate (apparent flux), Parent compounds (beta-lactamases inhibitors) (human, 10 %, pH 7.4): <0.001 mg/cm^2/h

Compound: Cl.O=C(OCCC1CCNCC1)[C@H]1/C(=C/CO)O[C@@H]2CC(=O)N21 [clavulanic acid-PEE, (2R,5R,Z)-3-(2-hydroxyethylidene)-7-oxo-4-oxa-1-aza-bicyclo[3.2.0]heptane-2-carboxylic acid 4-piperidineethyl ester•HCl salt]
- In vitro Penetration Rate (apparent flux), HPPs of beta-lactamases inhibitors (pH 7.4): 0.29 ± 0.02 mg/cm^2/h

- In vitro Penetration Rate (apparent flux), Parent compounds (pH 7.4): <0.001 mg/cm^2/h
Compound: C=CCSCC(=O)N[C@@H]1C(=O)N2[C@@H]1SC(C)(C)[C@@H]2C(=O)O [penicillin O, reference compound]

Compound: CCN(CC)CCCOC(=O)C1=CC(=NNc2ccc(S(=O)(=O)Nc3ccccn3)cc2)C=CC1=O.Cl [sulfasalazine-DEPE, 6-oxo-3-(2-[4-(N-pyridin-2-ylsulfamoyl)phenyl]hydrazono)cyclohexa-1,4-dienecarboxylic acid N,N-diethyaminopropyl ester•HCl salt]
- In vitro Penetration Rate (apparent flux), HPPs of sulfonamides, sulfones, quinolones (pH 7.4): 0.21 ± 0.03 mg/cm^2/h
